Patent US9902733B2, “Furopyridines as inhibitors of protein kinases” (MASARYKOVA UNIVERZITA, priority 2014, dated 2018)
Where two headings read alike, the source gives them in different places.

Experiments:
Type in all cases: biochemical
[1] = target: T1, HIPK3(h) (Homo sapiens, UniProt Q9H422); assay: HIPK3 KinaseProfiler radiometric protein kinase assay; settings: 15 μM ATP, 40 minutes at room temperature
T1 construct: purchased Merck Millipore (KinaseProfiler service)
Procedure: (§1) In vitro essays were performed by the company Merck Millipore in their KinaseProfiler radiometric protein kinase assay as paid commercial service. The compounds IC50 values for inhibition of individual protein kinases were determined. Dose-response curves were plotted from inhibition data generated, each in duplicate, from 10 point serial dilutions of inhibitory compounds. Concentration of compound was plotted against % kinase activity. To generate IC50 values, the dose-response curves were fitted to a standard sigmoidal curve and IC50 values were derived by standard nonlinear regression analysis.
(§2) All tested compounds were prepared in 100% DMSO to final assay concentrations either 0.5 mM (for the concentration row A, see below) or 0.05 mM (for the concentration row B). This working stock of the compound was added to the assay well as the first component in the reaction, followed by the remaining components as detailed below. The stock solution was added to the individual assay wells in such amounts that the concentrations of the compound were either in the row A (0.001 μM, 0.003 μM, 0.01 μM, 0.03 μM, 0.1 μM, 0.3 μM, 1.0 μM, 3.0 μM, and 10.0 μM) or in the row B (0.0001 μM, 0.0003 μM, 0.001 μM, 0.003 μM, 0.01 μM, 0.03 μM, 0.1 μM, 0.3 μM, and 1.0 μM). There was no pre-incubation step between the compound and the kinase prior to initiation of the reaction.
(§3) The positive control wells contained all components of the reaction, except the compound of interest; however, DMSO (at a final concentration of 2%) was included in these wells to control for solvent effects. The blank wells contained all components of the reaction, with staurosporine as a reference inhibitor replacing the compound of interest. This abolished kinase activity and established the base-line (0% kinase activity remaining).
HIPK3(h) was diluted in the buffer (20 mM MOPS, 1 mM EDTA, 0.01% Brij-35, 5% Glycerol, 0.1% β-mercaptoethanol, 1 mg/mL BSAs) to the concentration of 1.01 mg/mL prior to addition to the reaction mix.
The above stock solution of HIPK3(h) was added to a mixture containing 8 mM MOPS pH 7.0, 0.2 mM EDTA, and 1.0 mg/mL myelin basic protein in such amount that the resulting concentration of HIPK3(h) was 6.4 nM. This mixture was added to the stock solution of the tested compound. The reaction was initiated by the addition of the MgATP mix in such amount that the resulting concentration of Mg acetate in the reaction mixture was 10 mM and [γ-^33P-ATP] (specific activity approx. 500 cpm/pmol) was 15 μM. After incubation for 40 minutes at room temperature, the reaction was stopped by the addition of 3% phosphoric acid solution. […]

[2] = target: T2, DYRK2 (Homo sapiens, UniProt Q92630); assay: DYRK2 KinaseProfiler radiometric protein kinase assay
T2 construct: purchased Merck Millipore (KinaseProfiler service)
T2 sequence (Q92630 1-601): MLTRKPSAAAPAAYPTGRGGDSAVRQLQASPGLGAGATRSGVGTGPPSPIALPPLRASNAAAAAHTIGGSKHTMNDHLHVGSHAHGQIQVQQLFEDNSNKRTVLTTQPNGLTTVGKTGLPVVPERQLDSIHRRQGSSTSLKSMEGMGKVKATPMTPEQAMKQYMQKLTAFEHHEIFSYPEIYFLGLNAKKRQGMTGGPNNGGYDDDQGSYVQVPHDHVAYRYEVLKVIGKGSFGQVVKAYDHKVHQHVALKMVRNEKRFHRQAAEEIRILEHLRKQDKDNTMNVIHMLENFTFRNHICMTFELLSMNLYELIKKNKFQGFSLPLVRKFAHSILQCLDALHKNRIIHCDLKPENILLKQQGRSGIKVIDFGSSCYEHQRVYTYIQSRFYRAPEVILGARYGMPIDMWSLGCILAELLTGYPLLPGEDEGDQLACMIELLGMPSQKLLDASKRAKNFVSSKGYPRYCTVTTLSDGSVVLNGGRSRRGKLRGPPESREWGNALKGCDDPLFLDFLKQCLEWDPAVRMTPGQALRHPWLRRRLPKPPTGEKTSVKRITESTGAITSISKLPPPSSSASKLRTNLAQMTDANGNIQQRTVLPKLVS
Procedure: as §1, §2, §3

[3] = target: T3, CLK2 (h) (Homo sapiens, UniProt P49760); assay: CLK2 KinaseProfiler radiometric protein kinase assay
T3 construct: purchased Merck Millipore (KinaseProfiler service)
Procedure: as §1, §2, §3
CLK2 (h) was diluted in the buffer (20 mM MOPS (3-(N-morpholino)propanesulfonic acid), 1 mM EDTA (ethylendiaminotetraacetic acid), 0.01% Brij-35 (detergent), 5% Glycerol, 0.1% β-mercaptoethanol, 1 mg/mL BSAs) to the concentration of 1.01 mg/mL prior to addition to the reaction mix.
The above stock solution of CLK2(h) was added to a mixture containing 8 mM MOPS pH 7.0, 0.2 mM EDTA, and 20 μM […](p) EDEEE in such amount that the resulting concentration of CLK2(h) was 2.1 nM. This mixture was added to the stock solution of the tested compound. The reaction was initiated by the addition of the MgATP mix in such amount that the resulting concentration of Mg acetate in the reaction mixture was 10 mM and [γ-^33P-ATP] (specific activity approx. 500 cpm/pmol) was 15 μM. After incubation for 40 minutes at room temperature, the reaction was stopped by the addition of 3% phosphoric acid solution. 10 μL of the reaction was then spotted onto a P30 filtermat and washed three times for 5 minutes in 75 mM phosphoric acid and once in methanol prior to drying and scintillation counting.

[4] = target: T4, HIPK2(h) (Homo sapiens, UniProt Q9H2X6); assay: HIPK2 KinaseProfiler radiometric protein kinase assay; settings: 10 μM ATP, 40 minutes at room temperature
T4 construct: purchased Merck Millipore (KinaseProfiler service)
Procedure: as §1, §2, §3
HIPK2(h) was diluted in the buffer (20 mM MOPS, 1 mM EDTA, 0.01% Brij-35, 5% Glycerol, 0.1% β-mercaptoethanol, 1 mg/mL BSAs) to the concentration of 1.01 mg/mL prior to addition to the reaction mix.
The above stock solution of HIPK2(h) was added to a mixture containing 8 mM MOPS pH 7.0, 0.2 mM EDTA, and 0.33 mg/mL myelin basic protein in such amount that the resulting concentration of HIPK2(h) was 1.4 nM. This mixture was added to the stock solution of the tested compound. The reaction was initiated by the addition of the MgATP mix in such amount that the resulting concentration of Mg acetate in the reaction mixture was 10 mM and [γ-^33P-ATP] (specific activity approx. 500 cpm/pmol) was 10 μM. After incubation for 40 minutes at room temperature, the reaction was stopped by the addition of 3% phosphoric acid solution. 10 μL of the reaction was then spotted onto a P30 filtermat and washed three times for 5 minutes in 75 mM phosphoric acid and once in methanol prior to drying and scintillation counting.

T4 sequence (Q9H2X6 whole entry): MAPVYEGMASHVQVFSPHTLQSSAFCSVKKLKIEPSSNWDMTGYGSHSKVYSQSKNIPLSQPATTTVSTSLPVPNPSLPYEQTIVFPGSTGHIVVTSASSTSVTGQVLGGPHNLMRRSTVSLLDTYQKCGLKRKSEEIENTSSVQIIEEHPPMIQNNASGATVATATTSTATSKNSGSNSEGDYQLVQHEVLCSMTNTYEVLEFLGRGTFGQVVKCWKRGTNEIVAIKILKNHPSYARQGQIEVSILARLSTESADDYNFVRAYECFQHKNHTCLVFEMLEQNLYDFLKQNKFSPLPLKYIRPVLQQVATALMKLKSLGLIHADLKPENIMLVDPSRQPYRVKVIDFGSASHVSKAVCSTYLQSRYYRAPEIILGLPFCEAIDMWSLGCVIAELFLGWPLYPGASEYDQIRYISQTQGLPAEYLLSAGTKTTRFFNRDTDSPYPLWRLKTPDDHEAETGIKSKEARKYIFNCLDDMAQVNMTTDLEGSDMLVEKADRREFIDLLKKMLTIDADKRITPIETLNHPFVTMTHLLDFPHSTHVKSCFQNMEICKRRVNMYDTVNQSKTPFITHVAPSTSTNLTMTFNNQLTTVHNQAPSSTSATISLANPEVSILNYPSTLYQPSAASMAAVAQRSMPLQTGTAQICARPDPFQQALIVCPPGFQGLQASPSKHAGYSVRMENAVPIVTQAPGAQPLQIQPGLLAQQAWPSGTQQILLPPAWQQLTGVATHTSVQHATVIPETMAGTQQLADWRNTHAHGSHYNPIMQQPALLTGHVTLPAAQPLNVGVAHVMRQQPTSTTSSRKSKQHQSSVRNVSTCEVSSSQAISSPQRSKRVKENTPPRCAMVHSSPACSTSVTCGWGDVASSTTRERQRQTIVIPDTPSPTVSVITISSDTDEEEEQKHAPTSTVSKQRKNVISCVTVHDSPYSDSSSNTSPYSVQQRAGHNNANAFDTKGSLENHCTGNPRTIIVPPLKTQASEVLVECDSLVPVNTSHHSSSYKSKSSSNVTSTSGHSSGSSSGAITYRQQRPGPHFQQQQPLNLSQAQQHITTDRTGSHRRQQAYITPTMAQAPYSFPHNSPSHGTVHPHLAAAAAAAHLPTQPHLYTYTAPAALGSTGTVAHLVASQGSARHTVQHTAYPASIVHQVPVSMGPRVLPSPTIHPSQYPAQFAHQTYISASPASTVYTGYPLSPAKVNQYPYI
T3 sequence (P49760 whole entry): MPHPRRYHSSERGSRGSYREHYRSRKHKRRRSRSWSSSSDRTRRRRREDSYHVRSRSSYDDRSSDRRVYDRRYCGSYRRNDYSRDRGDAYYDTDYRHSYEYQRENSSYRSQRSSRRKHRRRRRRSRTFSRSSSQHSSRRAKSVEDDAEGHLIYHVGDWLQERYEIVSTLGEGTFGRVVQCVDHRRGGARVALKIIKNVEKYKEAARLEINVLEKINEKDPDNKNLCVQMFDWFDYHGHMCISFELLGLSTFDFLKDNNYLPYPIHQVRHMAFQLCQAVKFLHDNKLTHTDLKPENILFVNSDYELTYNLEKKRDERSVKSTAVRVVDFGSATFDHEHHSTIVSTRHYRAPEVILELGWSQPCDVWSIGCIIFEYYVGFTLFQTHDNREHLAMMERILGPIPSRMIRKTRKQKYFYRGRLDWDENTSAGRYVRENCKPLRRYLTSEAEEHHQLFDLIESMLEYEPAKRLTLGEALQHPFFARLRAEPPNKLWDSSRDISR
T1 sequence (Q9H422 whole entry): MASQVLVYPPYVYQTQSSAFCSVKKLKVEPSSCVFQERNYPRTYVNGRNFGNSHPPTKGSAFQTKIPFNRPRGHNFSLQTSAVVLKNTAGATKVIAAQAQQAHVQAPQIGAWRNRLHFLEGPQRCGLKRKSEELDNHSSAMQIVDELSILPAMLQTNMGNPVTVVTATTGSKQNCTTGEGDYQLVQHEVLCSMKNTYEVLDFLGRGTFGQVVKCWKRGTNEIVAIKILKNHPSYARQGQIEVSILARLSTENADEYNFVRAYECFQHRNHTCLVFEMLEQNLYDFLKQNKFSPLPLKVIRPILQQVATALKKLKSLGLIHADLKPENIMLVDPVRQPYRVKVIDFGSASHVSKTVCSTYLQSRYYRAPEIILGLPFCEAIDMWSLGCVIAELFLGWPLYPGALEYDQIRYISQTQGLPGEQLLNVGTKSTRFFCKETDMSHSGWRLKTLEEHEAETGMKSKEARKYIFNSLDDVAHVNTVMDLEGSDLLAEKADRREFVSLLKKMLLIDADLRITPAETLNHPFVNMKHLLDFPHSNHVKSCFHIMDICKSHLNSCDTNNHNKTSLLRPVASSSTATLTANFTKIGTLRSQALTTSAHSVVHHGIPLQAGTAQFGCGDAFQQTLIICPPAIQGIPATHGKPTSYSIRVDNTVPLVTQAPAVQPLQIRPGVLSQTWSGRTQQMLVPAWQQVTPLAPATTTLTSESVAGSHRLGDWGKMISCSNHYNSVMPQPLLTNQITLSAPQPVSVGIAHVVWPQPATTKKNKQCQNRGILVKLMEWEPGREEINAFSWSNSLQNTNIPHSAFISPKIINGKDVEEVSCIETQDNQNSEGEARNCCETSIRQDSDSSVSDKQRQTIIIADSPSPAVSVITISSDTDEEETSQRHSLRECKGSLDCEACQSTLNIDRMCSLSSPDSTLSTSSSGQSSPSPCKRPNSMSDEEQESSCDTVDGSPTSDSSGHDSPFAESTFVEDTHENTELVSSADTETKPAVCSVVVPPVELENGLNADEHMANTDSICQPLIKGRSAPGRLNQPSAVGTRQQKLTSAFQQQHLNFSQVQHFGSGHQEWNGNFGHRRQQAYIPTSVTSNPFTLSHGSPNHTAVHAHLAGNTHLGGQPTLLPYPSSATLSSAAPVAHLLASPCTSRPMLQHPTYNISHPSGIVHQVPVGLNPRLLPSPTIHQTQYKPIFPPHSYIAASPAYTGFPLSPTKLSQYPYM

| Structure (SMILES) | IC50 [1] | IC50 [2] | IC50 ([3]; radiometric, 15 μM ATP, 40 minutes at room temperature, read-out: CLK2 IC50) | IC50 [4] | IC50 [3] |
| --- | --- | --- | --- | --- | --- |
| Cn1cc(-c2ccc3occ(-c4ccccc4)c3n2)cn1 [Preparative Example 6A] | < 5000 nM | < 5000 nM | < 1000 nM | < 1000 nM |  |
| c1ccc(-c2coc3ccc(-c4cn[nH]c4)nc23)cc1 [Preparative Example 9] | < 1000 nM | < 5000 nM |  | < 100 nM | < 100 nM |
